For test [1], the target named is Signal transducer and activator of transcription 3 (Homo sapiens, UniProt P40763). Put plainly: Inhibition of STAT3 transcriptional activity in human HaCaT cells after 6 hrs by luciferase reporter gene assay. For orientation: Reporter assays use an easily measured gene product as a stand-in for the process of interest.
The target in test [2] is T1, Nuclear factor erythroid 2-related factor 2 (Homo sapiens, UniProt Q16236).
T1 sequence (Q16236 whole entry): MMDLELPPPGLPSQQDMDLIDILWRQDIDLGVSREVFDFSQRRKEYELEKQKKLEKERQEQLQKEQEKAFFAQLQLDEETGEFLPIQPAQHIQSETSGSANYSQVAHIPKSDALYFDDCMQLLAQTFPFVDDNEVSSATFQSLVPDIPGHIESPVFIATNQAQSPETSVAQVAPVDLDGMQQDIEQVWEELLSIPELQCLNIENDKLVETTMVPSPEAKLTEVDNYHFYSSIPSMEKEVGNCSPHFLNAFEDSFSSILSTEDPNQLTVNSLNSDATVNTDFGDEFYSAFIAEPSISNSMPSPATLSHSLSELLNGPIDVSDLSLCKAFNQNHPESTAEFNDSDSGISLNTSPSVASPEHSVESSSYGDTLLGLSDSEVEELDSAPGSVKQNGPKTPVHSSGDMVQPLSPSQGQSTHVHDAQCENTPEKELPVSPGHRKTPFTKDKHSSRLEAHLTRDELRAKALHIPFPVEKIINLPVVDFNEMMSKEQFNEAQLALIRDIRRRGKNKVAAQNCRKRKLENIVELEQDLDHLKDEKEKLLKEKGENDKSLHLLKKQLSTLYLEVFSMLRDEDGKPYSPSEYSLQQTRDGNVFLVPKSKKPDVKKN
The test can be described thus: Activation of Nrf2 transcriptional activity in human LNCaP cells after 6 hrs by luciferase reporter gene assay relative to tert-butylhydroquinone.

The IC50 is the concentration that inhibits the measured activity by half. A higher IC50 goes with a need for much substance. For orientation: EC50 means the concentration at which the effect is half-maximal. A low value points to a more potent agent.

Chain of Signal transducer and activator of transcription 3 (P40763 whole entry): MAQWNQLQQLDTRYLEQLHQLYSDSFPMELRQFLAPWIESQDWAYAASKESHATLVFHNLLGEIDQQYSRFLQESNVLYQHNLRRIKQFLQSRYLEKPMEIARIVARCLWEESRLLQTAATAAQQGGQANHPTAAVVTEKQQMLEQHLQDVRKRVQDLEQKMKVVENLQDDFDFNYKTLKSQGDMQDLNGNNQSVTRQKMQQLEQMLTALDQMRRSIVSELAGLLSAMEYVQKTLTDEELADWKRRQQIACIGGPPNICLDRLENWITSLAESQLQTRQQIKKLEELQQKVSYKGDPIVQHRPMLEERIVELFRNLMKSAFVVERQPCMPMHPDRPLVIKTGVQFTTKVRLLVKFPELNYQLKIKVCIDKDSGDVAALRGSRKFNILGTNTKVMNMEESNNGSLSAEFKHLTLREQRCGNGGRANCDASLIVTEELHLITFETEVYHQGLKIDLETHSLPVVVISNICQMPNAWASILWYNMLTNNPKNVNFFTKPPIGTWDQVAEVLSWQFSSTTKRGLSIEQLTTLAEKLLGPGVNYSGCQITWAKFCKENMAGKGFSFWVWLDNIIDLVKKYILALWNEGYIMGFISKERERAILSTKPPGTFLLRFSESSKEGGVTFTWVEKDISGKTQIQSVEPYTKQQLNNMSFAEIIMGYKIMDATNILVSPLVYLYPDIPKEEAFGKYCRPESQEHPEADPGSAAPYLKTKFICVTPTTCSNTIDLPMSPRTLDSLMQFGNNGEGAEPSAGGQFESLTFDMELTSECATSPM

In test [1], `COc1cc(CCC(=O)CC(=O)CCc2cc(CCC(C)C)c(O)c(OC)c2)cc(CCC(C)C)c1O` yielded an IC50 above 50 µM.
In test [1], `COc1cc(/C=C/C(=O)/C=C/c2cc(CC=C(C)C)c(O)c(OC)c2)cc(CC=C(C)C)c1O` gave an IC50 of 22.4 µM.
Same read-out and setting: with `COc1cc(/C=C/C(=O)CC(=O)c2ccc(O)c(OC)c2)ccc1O` the figure was 35.7 µM.
The molecule `COc1cc(/C=C/c2cc(-c3ccc(O)c(OC)c3)[nH]n2)ccc1O` displayed an IC50 in test [1] of 18.2 µM.
For the molecule `COc1cc(/C=C/C(=O)/C=C/c2cc(F)c(O)c(OC)c2)cc(F)c1O`, a half-maximal response in test [2] (EC50) required 3.1 µM. The IC50 in test [1] was 19.4 µM.
The molecule `COc1cc(/C=C/C(=O)CC(=O)/C=C/c2cc(F)c(O)c(OC)c2)cc(F)c1O` returned an EC50 in test [2] of 8.6 µM. Further, in test [1], the IC50 was 15.6 µM.
Molecule `COc1cc(/C=C/c2cc(/C=C/c3cc(CC=C(C)C)c(O)c(OC)c3)[nH]n2)cc(CC=C(C)C)c1O` yielded an IC50 in test [1] above 50 µM.
In test [1], `COc1cc(/C=C/C(=O)CC(=O)/C=C/c2cc(CC=C(C)C)c(O)c(OC)c2)cc(CC=C(C)C)c1O` registered an IC50 above 50 µM.
For the molecule `COc1cc(C=CC(=O)CC(=O)C=Cc2ccc(O)c(OC)c2)ccc1O`, a half-maximal response in test [2] (EC50) required 9.9 µM.
For the molecule `COc1cc(CCC(=O)CC(=O)CCc2ccc(O)c(OC)c2)ccc1O` [1,7-Bis-(4-hydroxy-3-methoxy-phenyl)-heptane-3,5-dione], the 50% inhibitory concentration (IC50) in test [1] was above 50 µM.
`COc1cc(/C=C/c2cc(/C=C/c3ccc(O)c(OC)c3)[nH]n2)ccc1O` [4-(2-(5-(4-hydroxy-3-methoxystyryl)-1H-pyrazol-3-yl)vinyl)-2-methoxyphenol] gave an IC50 in test [1] of 16.2 µM. This lies in the double-digit micromolar range.
On to `COc1cc(/C=C/C(=O)/C=C/c2ccc(O)c(OC)c2)ccc1O` [(1E,4E)-1,5-Bis-(4-hydroxy-3-methoxy-phenyl)-penta-1,4-dien-3-one], for which, in test [2], a half-maximal effect (EC50) was put at 0.9 µM. The molecule also registered an IC50 in test [1] of 6 µM.
